Assay results taken from paper PMC11096480, “The road to evolution of ProTx2: how to be a subtype-specific inhibition of human Nav1.7” (Frontiers in Pharmacology, 2024).
Entries after “also recorded” stand apart in the source; their conditions may differ. Where no end group is shown, it is not given here.

Legend:
[1] = molecular target: human voltage-gated sodium channel Nav1.7, on CHO cells (human) (UniProt Q15858)
[2] = molecular target: human voltage-gated sodium channel Nav1.4, on CHO cells (human) (UniProt P35499)
UniProt P35499, sequence (P35499 whole entry): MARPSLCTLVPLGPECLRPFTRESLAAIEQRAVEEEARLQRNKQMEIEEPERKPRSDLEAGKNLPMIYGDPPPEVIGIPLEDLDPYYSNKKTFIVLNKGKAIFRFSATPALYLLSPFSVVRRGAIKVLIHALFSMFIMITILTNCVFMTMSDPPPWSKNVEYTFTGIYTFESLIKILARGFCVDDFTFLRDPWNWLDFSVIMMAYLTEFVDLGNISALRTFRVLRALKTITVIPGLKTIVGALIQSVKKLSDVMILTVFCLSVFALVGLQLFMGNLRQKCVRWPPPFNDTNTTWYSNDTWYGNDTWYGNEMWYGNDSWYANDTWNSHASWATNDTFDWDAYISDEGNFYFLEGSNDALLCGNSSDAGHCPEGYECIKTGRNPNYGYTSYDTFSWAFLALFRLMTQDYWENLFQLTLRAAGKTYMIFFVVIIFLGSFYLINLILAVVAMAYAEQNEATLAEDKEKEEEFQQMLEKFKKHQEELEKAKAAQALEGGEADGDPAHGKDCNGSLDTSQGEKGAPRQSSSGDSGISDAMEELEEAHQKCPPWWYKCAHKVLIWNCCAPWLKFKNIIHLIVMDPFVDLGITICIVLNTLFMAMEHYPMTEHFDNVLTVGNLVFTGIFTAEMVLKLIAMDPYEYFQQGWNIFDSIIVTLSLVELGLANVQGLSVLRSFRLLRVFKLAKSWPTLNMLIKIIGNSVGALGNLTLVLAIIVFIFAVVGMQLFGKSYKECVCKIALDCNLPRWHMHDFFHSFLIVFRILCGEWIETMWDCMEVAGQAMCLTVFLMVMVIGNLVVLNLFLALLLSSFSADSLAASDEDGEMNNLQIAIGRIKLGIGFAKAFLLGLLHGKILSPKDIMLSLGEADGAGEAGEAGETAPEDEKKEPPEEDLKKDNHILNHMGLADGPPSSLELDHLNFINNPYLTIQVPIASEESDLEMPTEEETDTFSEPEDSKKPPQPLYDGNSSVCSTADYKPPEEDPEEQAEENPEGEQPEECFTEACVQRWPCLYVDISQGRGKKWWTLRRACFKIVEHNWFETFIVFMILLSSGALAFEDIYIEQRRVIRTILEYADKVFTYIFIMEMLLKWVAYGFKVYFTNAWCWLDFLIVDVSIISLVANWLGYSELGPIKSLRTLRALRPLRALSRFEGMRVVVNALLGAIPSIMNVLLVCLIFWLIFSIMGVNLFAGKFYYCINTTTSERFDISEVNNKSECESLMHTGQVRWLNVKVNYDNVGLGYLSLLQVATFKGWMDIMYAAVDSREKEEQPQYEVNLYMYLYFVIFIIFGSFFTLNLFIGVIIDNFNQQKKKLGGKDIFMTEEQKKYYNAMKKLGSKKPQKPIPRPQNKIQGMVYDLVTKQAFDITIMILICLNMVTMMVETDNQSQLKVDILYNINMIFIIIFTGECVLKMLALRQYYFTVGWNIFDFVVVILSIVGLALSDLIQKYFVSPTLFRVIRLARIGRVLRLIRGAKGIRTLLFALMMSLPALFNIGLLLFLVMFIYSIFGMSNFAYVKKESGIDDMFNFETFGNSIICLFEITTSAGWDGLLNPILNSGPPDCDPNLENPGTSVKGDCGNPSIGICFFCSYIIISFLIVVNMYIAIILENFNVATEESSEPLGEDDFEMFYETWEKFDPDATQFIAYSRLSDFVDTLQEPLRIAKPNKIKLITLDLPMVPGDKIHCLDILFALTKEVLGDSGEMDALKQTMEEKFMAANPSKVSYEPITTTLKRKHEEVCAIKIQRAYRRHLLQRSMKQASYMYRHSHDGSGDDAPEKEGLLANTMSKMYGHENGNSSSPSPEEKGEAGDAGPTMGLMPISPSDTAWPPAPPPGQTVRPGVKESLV

C2C12 cells = experiment: C2C12 cell viability (CCK8 assay); format: cell-based, mouse; details: CCK8, 450 nm, 18-h exposure, 0-160 μg/mL, serum-free, n = 5; R13D effect particularly between 100 and 160 μg/mL; relative to wild-type peptide
Procedure: (§1) Nav1.4-CHO cells and Nav1.7-CHO cells were maintained in Iscove’s modified Dulbecco’s medium (Gibco) supplemented with 10% (v/v) fetal bovine serum (FBS) and 200 μg/mL G418 (Sigma). All cells were cultured at 37 °C and 5% CO2 atmosphere. Mouse myoblasts C2C12, obtained from the Stem Cell Bank of The Chinese Academy of Sciences, were grown in Dulbecco’s modified Eagle‘s medium (DMEM) enriched with 10% heat-inactivated FBS, 2 mM L glutamine, 100 U/mL of penicillin, and 100 μg/mL of streptomycin. The C2C12 cells typically reached confluence in 3–5 days in 75-T flasks. For passaging, monolayers were treated with 0.25% trypsin for 3–5 min, rinsed twice with DMEM, and sub-cultured at a ratio of 1:4. Similarly, the Chinese hamster ovary (CHO) cells were cultured in IMDM medium supplemented with 10% fetal bovine serum, 1% penicillin/streptomycin, 100 μM hypoxanthine, and 16 μM thymidine. When 90% confluence was achieved, cells were separated by 0.25% trypsin EDTA, and patch clamp electrophysiology experiments were carried out.
C2C12 cell viability in response to ProTx2 or it mutants was evaluated using the CCK8 assay ([Pan et al., 2019]; [Ge et al., 2020]). […] After 18 h of treatment, cell viability was assessed by measuring the absorbance at 450 nm, following the addition of the CCK-8 reagent.

hNav1.7 = experiment: whole-cell patch clamp, CHO-Nav1.7 sodium current; format: cell-based, human
Procedure: as §1
(§2) Automatic electrophysiological platforms (NPC-1 and Port-a-Patch systems, […], Munich, Germany) and EPC10 amplifiers (HEKA Elektronik, Lambrecht, Germany) assessed the effects of recombinant ProTx2 and its mutants on CHO-Nav1.4 and CHO-Nav1.7. […]

KM mice [3] = experiment: formalin-induced paw-licking test; format: in vivo
Procedure: Male KM mice (18–22 g) were obtained from Liaoning Changsheng Biotechnology Co., Ltd. The mice were acclimated for 1 week at 18°C–22°C and 50%–70% humidity, following approval by the Animal Ethics Committee of Shenyang Pharmaceutical University, China. The pain response was assessed using a formalin-induced paw-licking test. The saline solution, 5 mg/kg morphine, commonly used analgesic medications in clinical practice, or 0.75 mg/kg peptides, ProTx II, and its mutants, were injected via the tail vein to relief the pain. After half an hour, a 20-μL 5% (v/v) formalin solution was administered as an activator to induce pain in mice (n = 10) ([Miranda et al., 2007]). The cumulative pain behavior that occurred 0–5 min (phase I, an immediate nociceptive phase) and 20–60 min (phase II, a later inflammatory phase) after injection was recorded for 60 min at 5 min intervals in individual cages to measure the total licking time in phases I and II, respectively.

hNav1.4 = experiment: whole-cell patch clamp, CHO-Nav1.4 sodium current; format: cell-based, human
Procedure: as §1, §2

KM mice [4] = experiment: forced swimming test; format: in vivo
Procedure: Additionally, a forced swimming test measured endurance following 7 days of treatment with ProTx2 or its mutants ([Porsolt et al., 1977]; [Galeotti et al., 2002]; [Xu et al., 2017]). Fifty male KM mice were randomly divided into five groups with 10 mice in each group. The groups were classified as normal saline control, ProTx2, R13A, R13D, and K27Y.
Following a 7-day treatment regimen, mice received injections of ProTx2 or its mutants and underwent forced swimming tests 20 min after the final treatment.

UniProt Q15858, sequence (Q15858 whole entry): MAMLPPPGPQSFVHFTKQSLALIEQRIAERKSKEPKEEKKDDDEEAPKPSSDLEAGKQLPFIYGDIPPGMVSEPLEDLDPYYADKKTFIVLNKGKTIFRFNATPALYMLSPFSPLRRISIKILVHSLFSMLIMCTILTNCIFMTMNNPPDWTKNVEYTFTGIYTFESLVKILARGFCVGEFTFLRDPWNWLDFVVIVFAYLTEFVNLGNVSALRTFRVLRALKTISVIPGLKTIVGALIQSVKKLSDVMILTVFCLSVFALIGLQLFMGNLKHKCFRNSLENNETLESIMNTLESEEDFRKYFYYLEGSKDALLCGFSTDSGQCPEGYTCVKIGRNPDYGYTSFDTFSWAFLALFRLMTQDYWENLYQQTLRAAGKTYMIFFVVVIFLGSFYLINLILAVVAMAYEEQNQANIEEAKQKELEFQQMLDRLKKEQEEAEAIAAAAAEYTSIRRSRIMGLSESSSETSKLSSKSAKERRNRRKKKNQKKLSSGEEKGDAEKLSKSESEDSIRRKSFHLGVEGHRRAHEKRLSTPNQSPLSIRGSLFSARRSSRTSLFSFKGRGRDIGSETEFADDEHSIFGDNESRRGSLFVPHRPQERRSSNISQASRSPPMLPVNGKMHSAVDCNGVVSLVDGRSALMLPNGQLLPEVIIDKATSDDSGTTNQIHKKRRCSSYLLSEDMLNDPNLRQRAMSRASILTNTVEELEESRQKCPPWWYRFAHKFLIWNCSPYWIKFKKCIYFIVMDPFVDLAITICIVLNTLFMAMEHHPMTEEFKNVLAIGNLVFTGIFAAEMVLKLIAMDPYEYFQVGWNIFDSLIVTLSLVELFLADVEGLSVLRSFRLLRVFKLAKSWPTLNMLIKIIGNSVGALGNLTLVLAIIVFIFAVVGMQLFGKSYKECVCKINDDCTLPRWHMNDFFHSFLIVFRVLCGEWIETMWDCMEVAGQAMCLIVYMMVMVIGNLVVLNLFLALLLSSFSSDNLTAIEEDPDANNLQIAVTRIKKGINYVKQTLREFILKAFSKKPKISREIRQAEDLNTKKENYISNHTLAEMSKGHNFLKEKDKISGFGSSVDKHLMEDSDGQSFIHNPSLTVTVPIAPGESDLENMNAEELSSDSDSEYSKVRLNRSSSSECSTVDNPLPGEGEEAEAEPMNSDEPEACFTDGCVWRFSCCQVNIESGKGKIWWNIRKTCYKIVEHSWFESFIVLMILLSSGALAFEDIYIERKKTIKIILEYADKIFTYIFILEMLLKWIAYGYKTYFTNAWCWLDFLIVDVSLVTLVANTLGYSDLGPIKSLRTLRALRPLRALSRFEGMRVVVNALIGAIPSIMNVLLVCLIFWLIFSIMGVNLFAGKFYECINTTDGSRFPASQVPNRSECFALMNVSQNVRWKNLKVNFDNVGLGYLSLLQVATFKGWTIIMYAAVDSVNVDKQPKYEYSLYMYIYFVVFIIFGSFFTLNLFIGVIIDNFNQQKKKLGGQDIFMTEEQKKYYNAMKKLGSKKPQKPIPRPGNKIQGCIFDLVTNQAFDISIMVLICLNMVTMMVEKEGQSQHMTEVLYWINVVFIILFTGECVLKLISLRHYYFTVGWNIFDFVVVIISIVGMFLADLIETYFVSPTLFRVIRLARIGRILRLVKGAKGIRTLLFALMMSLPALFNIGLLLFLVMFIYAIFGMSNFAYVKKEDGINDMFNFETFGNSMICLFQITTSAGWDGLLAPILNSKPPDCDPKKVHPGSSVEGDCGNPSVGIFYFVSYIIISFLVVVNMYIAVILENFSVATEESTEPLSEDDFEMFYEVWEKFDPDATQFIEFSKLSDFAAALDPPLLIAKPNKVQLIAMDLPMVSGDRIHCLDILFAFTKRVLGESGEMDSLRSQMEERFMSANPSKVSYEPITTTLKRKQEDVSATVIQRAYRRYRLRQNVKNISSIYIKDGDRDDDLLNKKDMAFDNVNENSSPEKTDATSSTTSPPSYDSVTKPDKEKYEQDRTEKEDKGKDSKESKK

Question: With “ProTx2 mutant R13D, recombinant (from UniProt P83476 1-30) (peptide)” as the compound, how does the peak sodium current amplitude (normalized) of hNav1.7-CHO cells, whole-cell patch clamp, peptide at 1 μM [1] read?
Answer: 68%

Question: What about the peak sodium current amplitude (normalized) of hNav1.4-CHO cells, whole-cell patch clamp, peptide at 1 μM [2] of the same compound?
Answer: 59%

Question: “ProTx2 (Protoxin-II), wild type, recombinant (from UniProt P83476 1-30) (peptide)” was tested. Which peak sodium current amplitude (normalized) of hNav1.7-CHO cells, whole-cell patch clamp, peptide at 1 μM [1] did it give?
Answer: 82%

Question: And the peak sodium current amplitude (normalized) of hNav1.4-CHO cells, whole-cell patch clamp, peptide at 1 μM [2]?
Answer: 50%

Question: For “R13D: single-point mutation (R13D) in ProTx2 (YCQKWMWTCDSEDKCCEGMVCRLWCKKKLW; ends and bridges not checked; cysteine pairing not given here)”, which “C2C12 cellular viability” value (C2C12 cells) is on record?
Answer: significantly improved cellular viability in a concentration-dependent manner, particularly between 100 and 160 μg/mL

Question: What about the “peak sodium current amplitude, hNav1.7” value (hNav1.7; 1 μM, normalized Na+ peak current at −30 mV, CHO cells, whole-cell, holding −80 mV, 22°C, 10 cells per set, R13D vs ProTx2 p < 0.01) of the same compound?
Answer: 68%

Question: And the “inhibition of hNav1.7 current” value (hNav1.7; CHO-Nav1.7, whole-cell, relative to ProTx2 for R13D)?
Answer: pronouncedly intensified inhibition of hNav1.7

Question: What about the “analgesic effect” value (KM mice [3]; formalin model, 0.75 mg/kg peptide, tail vein, versus wild-type ProTx2, 0.75 mg/kg) of the same compound?
Answer: maintained the analgesic effect in mice; also recorded: significantly alleviated pain in both the acute and inflammatory phases, outperforming the wild-type ProTx2

Question: What about the “total licking time, phase I” value (KM mice [3]; phase I (0–5 min), 0.75 mg/kg peptide, tail vein, half an hour before 20 μL 5% formalin, male KM mice, n = 10) of the same compound?
Answer: 33.5 ± 1.6 s

Question: What about the “total licking time, phase II” value (KM mice [3]; phase II (20–60 min), 0.75 mg/kg peptide, tail vein, half an hour before 20 μL 5% formalin, male KM mice, n = 10) of the same compound?
Answer: 128.0 ± 5.2 s

Question: And the “peak sodium current amplitude, hNav1.4” value (hNav1.4; 1 μM, normalized Na+ peak current at −30 mV, CHO cells, whole-cell, holding −80 mV, 22°C, 10 cells per set)?
Answer: 59%

Question: And the “inhibition of hNav1.4 current” value (hNav1.4; CHO-Nav1.4, whole-cell, relative to ProTx2 for R13D)?
Answer: marginally diminished effect on hNav1.4

Question: And the “swimming endurance / muscular toxicity” value (KM mice [4]; 7-day treatment, test 20 min after final treatment, male KM mice, n = 10, versus wild-type ProTx2)?
Answer: significantly prolonged endurance compared to the wild-type ProTx2 group, suggesting reduced muscular toxicity (p < 0.05)

Question: What about the “muscle toxicity” value (KM mice [4]; summary in abstract, compared with ProTx2) of the same compound?
Answer: dramatically reducing its muscle toxicity compared with ProTx2

Question: `CN1CC[C@]23c4c5ccc(O)c4O[C@H]2[C@@H](O)C=C[C@H]3[C@H]1C5` [morphine, reference compound] was tested. Which “total licking time, phase I (morphine)” value (KM mice [3]; mouse, in vivo, 5 mg/kg) did it give?
Answer: 7.5 ± 1.6 s

Question: What about the “total licking time, phase II (morphine)” value (KM mice [3]; mouse, in vivo, 5 mg/kg) of the same compound?
Answer: 42.1 ± 6.1 s
